{"source": "PubChem BioAssay AID298", "about": "(DTP/NCI, 2004)", "test_system": "MX-1 breast xenograft, intrarenal, nude mice, tumor weight", "experiment": "NCI In Vivo Anticancer Drug Screen. Data for tumor model Human Mammary Carcinoma MX-1 Xenograft (intrarenal inoculation) in NU/NU BALB/C (nude) mice", "conditions": "endpoint: mean tumor weight change, higher = larger tumour", "method_in_brief": "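Compounds were given to mice carrying transplanted tumors, and tumor size or survival was measured. Each value is the treated-group measurement (T) divided by the vehicle-treated control-group measurement (C).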", "key": {"[1]": {"conditions": "dose: 75.0 mg/kg/injection, schedule: Q04DX003 (ip), vehicle: Klucel (hydroxypropylcellulose) (HPC)"}, "[2]": {"conditions": "dose: 150.0 mg/kg/injection, schedule: Q04DX003 (ip), vehicle: Klucel (hydroxypropylcellulose) (HPC)"}, "[3]": {"conditions": "dose: 300.0 mg/kg/injection, schedule: Q04DX003 (ip), vehicle: Klucel (hydroxypropylcellulose) (HPC)"}, "[4]": {"conditions": "dose: 300.0 mg/kg/injection, schedule: Q04DX003 (sc), vehicle: Klucel (hydroxypropylcellulose) (HPC)"}}, "note": "Values joined by “and” are separate entries in the source; they are usually repeats but may differ in a detail not shown here. Equal values may be shown once. Inconclusive results are not listed."}
{"compound": "O=C(O)CCCc1ccc(N(CCCl)CCCl)cc1", "values": [{"measurement": "T/C", "setting": "dose: 12.0 mg/kg/injection, schedule: Q04DX003 (ip), vehicle: Klucel (hydroxypropylcellulose) (HPC)", "result": "1 % of control and 4 % of control"}, {"measurement": "T/C", "setting": "dose: 18.0 mg/kg/injection, schedule: Q04DX003 (ip), vehicle: Klucel (hydroxypropylcellulose) (HPC)", "result": "4 % of control"}, {"measurement": "T/C", "setting": "dose: 27.0 mg/kg/injection, schedule: Q04DX003 (ip), vehicle: Klucel (hydroxypropylcellulose) (HPC)", "result": "-55 % of control"}]}
{"compound": "C=CCOc1cc2c(cc1C(C)c1ccc(OC)cc1)OCO2", "note": "(stereo not given)", "values": [{"measurement": "T/C", "setting": "[1]", "result": "73 % of control"}, {"measurement": "T/C", "setting": "[2]", "result": "91 % of control"}, {"measurement": "T/C", "setting": "[3]", "result": "94 % of control"}]}
{"compound": "O=C1N[C@H]2[C@H](O)[C@H](O)[C@@H](O)[C@H](O)[C@@H]2c2cc3c(c(O)c21)OCO3", "values": [{"measurement": "T/C", "setting": "dose: 12.5 mg/kg/injection, schedule: Q04DX003 (ip), vehicle: saline + alcohol", "result": "72 % of control"}]}
{"compound": "N=C(N)c1ccc(N=Nc2c(O)ccc3cc(O)ccc23)cc1", "values": [{"measurement": "T/C", "setting": "[1]", "result": "98 % of control and 123 % of control"}, {"measurement": "T/C", "setting": "[2]", "result": "95 % of control and 117 % of control"}, {"measurement": "T/C", "setting": "[3]", "result": "70 % of control"}]}
{"compound": "COc1cc2c[n+](C)c3c4cc5c(cc4ccc3c2cc1OC)OCO5", "values": [{"measurement": "T/C", "setting": "dose: 25.0 mg/kg/injection, schedule: Q04DX003 (sc), vehicle: saline with Tween-80", "result": "94 % of control"}, {"measurement": "T/C", "setting": "dose: 50.0 mg/kg/injection, schedule: Q04DX003 (sc), vehicle: saline with Tween-80", "result": "116 % of control"}, {"measurement": "T/C", "setting": "dose: 100.0 mg/kg/injection, schedule: Q04DX003 (sc), vehicle: saline with Tween-80", "result": "111 % of control"}, {"measurement": "T/C", "setting": "dose: 200.0 mg/kg/injection, schedule: Q04DX003 (sc), vehicle: saline with Tween-80", "result": "108 % of control"}]}
{"compound": "CN(CN1C(=O)CCC1=O)CN1C(=O)CCC1=O", "values": [{"measurement": "T/C", "setting": "dose: 150.0 mg/kg/injection, schedule: Q04DX003 (ip), vehicle: saline", "result": "91 % of control"}, {"measurement": "T/C", "setting": "dose: 300.0 mg/kg/injection, schedule: Q04DX003 (ip), vehicle: saline", "result": "61 % of control"}]}
{"compound": "Cc1nn(CCO)c(C)c1N=[N+]([O-])c1c(C)nn(CCO)c1C", "values": [{"measurement": "T/C", "setting": "[4]", "result": "109 % of control"}, {"measurement": "T/C", "setting": "dose: 600.0 mg/kg/injection, schedule: Q04DX003 (sc), vehicle: Klucel (hydroxypropylcellulose) (HPC)", "result": "85 % of control"}, {"measurement": "T/C", "setting": "dose: 1200.0 mg/kg/injection, schedule: Q04DX003 (sc), vehicle: Klucel (hydroxypropylcellulose) (HPC)", "result": "102 % of control"}, {"measurement": "T/C", "setting": "dose: 2400.0 mg/kg/injection, schedule: Q04DX003 (sc), vehicle: Klucel (hydroxypropylcellulose) (HPC)", "result": "90 % of control"}]}
{"compound": "CN(C)/N=N/c1nc[nH]c1C(N)=O", "values": [{"measurement": "T/C", "setting": "dose: 50.0 mg/kg/injection, schedule: Q04DX003 (ip), vehicle: Klucel (hydroxypropylcellulose) (HPC)", "result": "74 % of control"}, {"measurement": "T/C", "setting": "[1]", "result": "87 % of control"}, {"measurement": "T/C", "setting": "dose: 112.0 mg/kg/injection, schedule: Q04DX003 (ip), vehicle: Klucel (hydroxypropylcellulose) (HPC)", "result": "82 % of control"}, {"measurement": "T/C", "setting": "dose: 200.0 mg/kg/injection, schedule: Q01DX010 (sc), vehicle: Klucel (hydroxypropylcellulose) (HPC)", "result": "70 % of control"}, {"measurement": "T/C", "setting": "dose: 400.0 mg/kg/injection, schedule: Q01DX010 (sc), vehicle: Klucel (hydroxypropylcellulose) (HPC)", "result": "14 % of control"}]}
{"compound": "CC1(C)CC(=O)C(CSC(=O)c2ccccc2)C(=O)C1", "values": [{"measurement": "T/C", "setting": "dose: 75.0 mg/kg/injection, schedule: Q04DX003 (sc), vehicle: Klucel (hydroxypropylcellulose) (HPC)", "result": "101 % of control"}, {"measurement": "T/C", "setting": "dose: 150.0 mg/kg/injection, schedule: Q04DX003 (sc), vehicle: Klucel (hydroxypropylcellulose) (HPC)", "result": "101 % of control"}, {"measurement": "T/C", "setting": "[4]", "result": "101 % of control"}]}
{"compound": "C[C@H]1C[C@@H]2[C@H]([C@@H](O)C[C@@]3(C)[C@H]2CC[C@]3(O)C(=O)CO)[C@@]2(C)C=CC(=O)C=C12", "values": [{"measurement": "T/C", "setting": "dose: 200.0 mg/kg/injection, schedule: Q04DX003 (sc), vehicle: Klucel (hydroxypropylcellulose) (HPC)", "result": "37 % of control"}, {"measurement": "T/C", "setting": "dose: 400.0 mg/kg/injection, schedule: Q04DX003 (sc), vehicle: Klucel (hydroxypropylcellulose) (HPC)", "result": "47 % of control"}, {"measurement": "T/C", "setting": "dose: 800.0 mg/kg/injection, schedule: Q04DX003 (sc), vehicle: Klucel (hydroxypropylcellulose) (HPC)", "result": "37 % of control"}, {"measurement": "T/C", "setting": "dose: 1600.0 mg/kg/injection, schedule: Q04DX003 (sc), vehicle: Klucel (hydroxypropylcellulose) (HPC)", "result": "19 % of control"}]}
{"compound": "CC1(C)N=C(N)N=C(N)N1c1ccc(F)c(C(F)(F)F)c1", "values": [{"measurement": "T/C", "setting": "dose: 6.25 mg/kg/injection, schedule: Q01DX010 (sc), vehicle: saline", "result": "97 % of control"}, {"measurement": "T/C", "setting": "dose: 12.5 mg/kg/injection, schedule: Q01DX010 (sc), vehicle: saline", "result": "85 % of control"}, {"measurement": "T/C", "setting": "dose: 25.0 mg/kg/injection, schedule: Q01DX010 (sc), vehicle: saline", "result": "64 % of control"}]}
